Measurements from patent US11464749B2, “Bismuth-thiol compositions and methods of use” (Microbion Corporation, priority 2018, dated 2022).
≈ marks a conversion by molar mass, not a printed value.

Legend:
Candida albicans = assay: Broth microdilution antifungal susceptibility (Example 13); format: cell-based; settings: 24 hr
Candida glabrata = assay: as above; format: cell-based
Candida krusei = assay: as above; format: cell-based
Candida auris = assay: as above; format: cell-based
A. niger = assay: as above; format: cell-based; settings: A. niger ATCC 29508; comparators, read time not given
A. terreus = assay: as above; format: cell-based; settings: A. terreus MMX 8229; comparators, read time not given
A. fumigatus = assay: as above; format: cell-based; settings: comparators, read time not given
A. flavus = assay: as above; format: cell-based; settings: comparators, read time not given
Escherichia coli [1] = settings: E. coli MMX 102 (ATCC 25922); CLSI QC ranges shown in parenthesis; cited from earlier work
Pseudomonas aeruginosa [2] = settings: P. aeruginosa MMX 103 (ATCC 27853); CLSI QC ranges shown in parenthesis; cited from earlier work
Escherichia coli [3] = assay: Broth microdilution MIC (Example 11)
Klebsiella pneumoniae = assay: Broth microdilution MIC (Example 11)
Enterobacter cloacae = assay: Broth microdilution MIC (Example 11); settings: ATCCBAA2468
Pseudomonas aeruginosa [4] = assay: Broth microdilution MIC (Example 11); settings: Pseudomonas aeruginosa
Acinetobacter baumannii = assay: Broth microdilution MIC (Example 11); settings: Acinetobacter baumannii
[5] = tested on: Staphylococcus aureus (MRSA); assay: Broth microdilution MIC (Example 11)
E. faecalis = assay: Broth microdilution MIC (Example 11); settings: Enterococcus faecalis, VRE, VRE Lev^R Cip^R Ery^R

In the case of `C[C@@H]1[C@H](O)[C@@H](C)/C=C/C=C/C=C/C=C/C=C/C=C/C=C/[C@H](O[C@@H]2O[C@H](C)[C@@H](O)[C@H](N)[C@@H]2O)C[C@@H]2O[C@](O)(C[C@@H](O)C[C@@H](O)[C@H](O)CC[C@@H](O)C[C@@H](O)CC(=O)O[C@H]1C)C[C@H](O)[C@H]2C(=O)O` [AMP B], the “MIC0 (complete inhibition)” value (Candida albicans; isolate ATCC 90028 (Susceptible)) is reported as 0.25 µg/mL, the “MIC0 (complete inhibition)” value (Candida albicans; isolate ATCC 204276 (MICA-R)) is reported as 0.25 µg/mL and the “MIC0 (complete inhibition)” value (Candida albicans; isolate ATCC MYA-2732 (FLU-R, VORI-I)) is reported as 0.25 µg/mL. For the same compound, the “MIC0 (complete inhibition)” value (Candida albicans; isolate MMX 7053 (Susceptible)) was 0.12 µg/mL, the “MIC0 (complete inhibition)” value (Candida albicans; isolate MMX 7067 (FLU-R, VORI-R)) was 0.25 µg/mL and the “MIC0 (complete inhibition)” value (Candida albicans; isolate MMX 7403 (Susceptible)) was 0.25 µg/mL. The “MIC0 (complete inhibition)” value (Candida albicans; isolate MMX 7424 (CASP-R, MICA-R)) was 0.25 µg/mL, the “MIC0 (complete inhibition)” value (Candida albicans; isolate MMX 7430 (Susceptible)) was 0.25 µg/mL and the “MIC0 (complete inhibition)” value (Candida albicans; isolate MMX 7437 (FLU-I)) was 0.25 µg/mL. The “MIC0 (complete inhibition)” value (Candida albicans; isolate MMX 7445 (FLU-R, VORI-R)) was 0.12 µg/mL, the “MIC0 (complete inhibition)” value (Candida glabrata; isolate ATCC 90030 (Susceptible)) was 0.25 µg/mL and the “MIC0 (complete inhibition)” value (Candida glabrata; isolate ATCC MYA-2950 (Susceptible)) was 0.12 µg/mL. For the same compound, the “MIC0 (complete inhibition)” value (Candida glabrata; isolate MMX 7087 (Susceptible)) was 0.12 µg/mL, the “MIC0 (complete inhibition)” value (Candida glabrata; isolate MMX 7093 (FLU-R)) was 0.25 µg/mL and the “MIC0 (complete inhibition)” value (Candida glabrata; isolate MMX 7101 (FLU-R)) was 0.25 µg/mL. The “MIC0 (complete inhibition)” value (Candida glabrata; isolate MMX 7103 (CASP-R, MICA-R)) was 0.25 µg/mL, the “MIC0 (complete inhibition)” value (Candida glabrata; isolate MMX 7111 (Susceptible)) was 0.25 µg/mL and the “MIC0 (complete inhibition)” value (Candida glabrata; isolate MMX 7285 (CASP-R, MICA-R)) was 0.25 µg/mL. For the same compound, the “MIC0 (complete inhibition)” value (Candida glabrata; isolate MMX 7307 (CASP-R, MICA-R, FLU-R)) was 0.25 µg/mL, the “MIC0 (complete inhibition)” value (Candida glabrata; isolate MMX 7549 (Susceptible)) was 0.25 µg/mL and the “MIC0 (complete inhibition)” value (Candida krusei; isolate ATCC 6258 (MICA-I)) was 0.5 µg/mL. The “MIC0 (complete inhibition)” value (Candida krusei; isolate ATCC 14243 (Susceptible)) was 0.25 µg/mL, the “MIC0 (complete inhibition)” value (Candida krusei; isolate ATCC 96685 (Susceptible)) was 0.5 µg/mL and the “MIC0 (complete inhibition)” value (Candida krusei; isolate MMX 7125 (Susceptible)) was 0.5 µg/mL. The “MIC0 (complete inhibition)” value (Candida krusei; isolate MMX 7128 (Susceptible)) was 0.5 µg/mL, the “MIC0 (complete inhibition)” value (Candida krusei; isolate MMX 7141 (Susceptible)) was 0.25 µg/mL and the “MIC0 (complete inhibition)” value (Candida krusei; isolate MMX 7153 (MICA-R)) was 0.5 µg/mL. For the same compound, the “MIC0 (complete inhibition)” value (Candida krusei; isolate MMX 7155 (Susceptible)) was 0.25 µg/mL, the “MIC0 (complete inhibition)” value (Candida krusei; isolate MMX 7563 (Susceptible)) was 0.5 µg/mL and the “MIC0 (complete inhibition)” value (Candida krusei; isolate MMX 9878 (MICA-I, VORI-I)) was 0.5 µg/mL. The “MIC0 (complete inhibition)” value (Candida auris; isolate MMX 9862 (Susceptible)) was 0.25 µg/mL, the “MIC0 (complete inhibition)” value (Candida auris; isolate MMX 9863 (FLU-R, VORI-R)) was 0.12 µg/mL and the “MIC0 (complete inhibition)” value (Candida auris; isolate MMX 9864 (FLU-R, VORI-R)) was 0.25 µg/mL. For the same compound, the “MIC0 (complete inhibition)” value (Candida auris; isolate MMX 9865 (FLU-R, VORI-R)) was 0.25 µg/mL, the “MIC0 (complete inhibition)” value (Candida auris; isolate MMX 9866 (FLU-R, VORI-R)) was 0.5 µg/mL and the “MIC0 (complete inhibition)” value (Candida auris; isolate MMX 9867 (FLU-R, VORI-R)) was 0.5 µg/mL. The “MIC0 (complete inhibition)” value (Candida auris; isolate MMX 9868 (FLU-R, VORI-R)) was 0.25 µg/mL, the “MIC0 (complete inhibition)” value (Candida auris; isolate MMX 9869 (FLU-R, VORI-R)) was 1 µg/mL and the “MIC0 (complete inhibition)” value (Candida auris; isolate MMX 9870 (FLU-R, VORI-R)) was 1 µg/mL. For the same compound, the “MIC0 (complete inhibition)” value (Candida auris; isolate MMX 9871 (Susceptible)) was 1 µg/mL, the MIC0 (A. niger) was 0.25 µg/mL and the MIC0 (A. terreus) was 0.25 µg/mL. For the same compound, the MIC0 (A. fumigatus; A. fumigatus ATCC 204305) was 1 µg/mL, the MIC0 (A. fumigatus; A. fumigatus ATCC MYA-3626) was 1 µg/mL and the MIC0 (A. fumigatus; A. fumigatus MMX 5934) was 1 µg/mL. It also gave an MIC0 (A. fumigatus; A. fumigatus MMX 5938) of 1 µg/mL, an MIC0 (A. fumigatus; A. fumigatus MMX 5939) of 1 µg/mL and an MIC0 (A. flavus; A. flavus ATCC 22546) of 1 µg/mL. It also gave an MIC0 (A. flavus; A. flavus ATCC 204304) of 1 µg/mL and an MIC0 (A. flavus; A. flavus MMX 7935) of 1 µg/mL.

For `CC(C)(O/N=C(\C(=O)N[C@@H]1C(=O)N2C(C(=O)[O-])=C(C[n+]3ccccc3)CS[C@H]12)c1csc(N)n1)C(=O)O` [Ceftazidime], the “CLSI QC range of MIC” value (Escherichia coli [1]) is listed as “(0.06-0.5) μg/mL”, the “CLSI QC range of MIC” value (Pseudomonas aeruginosa [2]) is listed as “(1-4) μg/mL” and the MIC (Escherichia coli [3]; ATCC25922, E. coli MMX 102 (ATCC 25922), QC) is listed as 0.12 µg/mL (≈ 0.22 µM). The MIC (Escherichia coli [3]; ATCCBAA2469, E. coli MMX 5980 (ATCC BAA-2469), NDM-1, Lev^R, MEM^R, CAZ^R, Gm^R) was greater than 32 µg/mL, the MIC (Escherichia coli [3]; E. coli MMX 8423, ESBL, Lev^R, CAZ^R, Gm^R) was 32 µg/mL (≈ 58.5 µM) and the MIC (Escherichia coli [3]; E. coli MMX 8424, ESBL, CAZ^R) was 16 µg/mL (≈ 29.3 µM). It also gave an MIC (Escherichia coli [3]; E. coli MMX 8425, ESBL, Lev^R, CAZ^R, Gm^R) of 16 µg/mL (≈ 29.3 µM), an MIC (Klebsiella pneumoniae; K. pneumoniae MMX 4622, KPC-2, MEM^R, CAZ^R) greater than 32 µg/mL and an MIC (Klebsiella pneumoniae; K. pneumoniae MMX 4623, KPC-2, MEM^R, CAZ^R, GM^R) greater than 32 µg/mL. The MIC (Klebsiella pneumoniae; K. pneumoniae MMX 4653, KPC-3, Lev^R, MEM^R, CAZ^R) was greater than 32 µg/mL, the MIC (Klebsiella pneumoniae; K. pneumoniae MMX 4683, KPC-2, Lev^R, MEM^R, CAZ^R) was greater than 32 µg/mL and the MIC (Klebsiella pneumoniae; K. pneumoniae MMX 4684, ESBL, MEM^R) was 8 µg/mL (≈ 14.6 µM). For the same compound, the MIC (Klebsiella pneumoniae; K. pneumoniae MMX 4685, ESBL, Lev^R, MEM^R, CAZ^R) was greater than 32 µg/mL, the MIC (Klebsiella pneumoniae; K. pneumoniae MMX 4694, KPC-3, Lev^R, MEM^R, CAZ^R) was greater than 32 µg/mL and the MIC (Klebsiella pneumoniae; K. pneumoniae MMX 5979, NDM-1, Lev^R, MEM^R, CAZ^R, Gm^R) was greater than 32 µg/mL. The MIC (Enterobacter cloacae) was greater than 32 µg/mL, the MIC (Pseudomonas aeruginosa [4]; ATCC27853, P. aeruginosa MMX 103 (ATCC 27853), QC) was 2 µg/mL (≈ 3.66 µM) and the MIC (Pseudomonas aeruginosa [4]; P. aeruginosa MMX 1381, MDR, Lev^R, Cip^R, MEM^R, CAZ^R) was 32 µg/mL (≈ 58.5 µM). For the same compound, the MIC (Pseudomonas aeruginosa [4]; P. aeruginosa MMX 2562, MDR, Lev^R, Cip^R, MEM^R, CAZ^R) was greater than 32 µg/mL, the MIC (Pseudomonas aeruginosa [4]; P. aeruginosa MMX 3991, MDR, Lev^R, Cip^R, MEM^R, CAZ^R) was 16 µg/mL (≈ 29.3 µM) and the MIC (Pseudomonas aeruginosa [4]; P. aeruginosa MMX 4654, IMP-7, Lev^R, Cip^R, MEM^R, CAZ^R) was greater than 32 µg/mL. The MIC (Pseudomonas aeruginosa [4]; P. aeruginosa MMX 4697, VIM-2, Lev^R, Cip^R, MEM^R, CAZ^R) was 32 µg/mL (≈ 58.5 µM), the MIC (Acinetobacter baumannii; A. baumannii MMX 2592, MDR, Lev^R, Cip^R, MEM^R, CAZ^R, Gm^R) was 32 µg/mL (≈ 58.5 µM) and the MIC (Acinetobacter baumannii; A. baumannii MMX 2593, MDR, Lev^R, Cip^R, MEM^R, CAZ^R, Gm^R) was 32 µg/mL (≈ 58.5 µM). It also gave an MIC (Acinetobacter baumannii; A. baumannii MMX 3372, MDR, Cip^R, MEM^I, CAZ^I) of 16 µg/mL (≈ 29.3 µM), an MIC (Acinetobacter baumannii; A. baumannii MMX 3373, Sensitive) of 4 µg/mL (≈ 7.32 µM) and an MIC (Acinetobacter baumannii; NCTC13304, A. baumannii MMX 4651 (NCTC 13304), MDR, OXA-27, Lev^R, Cip^R, MEM^R, CAZ^R, Gm^I) greater than 32 µg/mL. It also gave an MIC ([5]; ATCC29213|MRSA|MSSA, S. aureus MMX 101 (ATCC 29213), QC, MSSA) of 8 µg/mL (≈ 14.6 µM), an MIC ([5]; MRSA, S. aureus MMX 5373, MRSA Lev^R Cip^R CC^R Ery^R Ox^R) greater than 32 µg/mL and an MIC ([5]; MRSA, S. aureus MMX 6311, MRSA Lev^R Cip^R CC^R Ery^R Ox^R) greater than 32 µg/mL. It also gave an MIC ([5]; MRSA, S. aureus MMX 9203, MRSA Lev^R Cip^R Ery^R Ox^R) greater than 32 µg/mL, an MIC ([5]; MRSA, S. aureus MMX 9204, MRSA Lev^R Cip^R Ery^R Ox^R) greater than 32 µg/mL and an MIC ([5]; MRSA, S. aureus MMX 9205, MRSA Lev^R Cip^R CC^R Ery^R Ox^R) greater than 32 µg/mL. The MIC (E. faecalis; E. faecalis MMX 8960) was greater than 32 µg/mL, the MIC (E. faecalis; E. faecalis MMX 8961) was greater than 32 µg/mL and the MIC (E. faecalis; E. faecalis MMX 8962) was greater than 32 µg/mL.
